Converted amounts (≈) assume the structure as drawn. Where two headings read alike, the source gives them in different places. Where a SMILES comes first, the peptide text is derived from it. The star is where a group is joined. X6 = CCCCCN(CCc1c2c(nc3ccccc13)-c1cc3c(c(=O)n1C2)COC(=O)[C@]3(O)CC)*; X1 = CC[C@@]1(O)C(=O)OCc2c1cc1n(c2=O)Cc2c-1nc1ccccc1c2CCN(C1CCC1)*; X4 = CCCN(CCc1c2c(nc3ccccc13)-c1cc3c(c(=O)n1C2)COC(=O)[C@]3(O)CC)*; X3 = CC[C@@]1(O)C(=O)OCc2c1cc1n(c2=O)Cc2c-1nc1ccccc1c2CCN(C1CC1)*; Propanoyl(3-maleimido) = O=C1C=CC(=O)N1CCC(=O)*; PEG6 = NCCOCCOCCOCCOCCOCCOCCC(=O)O
Columns and labels:
[1] = Tumor homogenate activation efficiency, sarcoma tissue (Examples 28, 37); assay type: in vitro ADME; details: pH 5.0, 37° C., 2 h; Table 5
Description: (§1) Buffer preparation: 50 mM PH buffer (MES), 250 mM NaCl, pH adjusted to 5.0 with 0.5 M of sodium hydroxide.
(§2) The polypeptide conjugate was prepared into a 1 mg/ml solution with pH 5.0 buffer, 100 μg of tumor tissue homogenate was added, (the tumor tissue homogenate was the homogenate of tumor tissues prepared with a Jingxin F6/10 handheld homogenizer), and the solution was placed at 37° C. for 2 h. The tumor tissue homogenate could effectively activate the polypeptide conjugate and release Belotecan, and the activation efficiencies of the drugs in tumor tissues were compared by high-performance liquid chromatography (HPLC) allowing determination of a decrease in the compounds and an increase in Belotecan:
(§3) Release percentage=peak area of Belotecan/total peak area of Belotecan and all other Belotecan-containing compounds
as §2, with “HPLC” for “high-performance liquid chromatography (HPLC)”, “Belotecan: […]” for “Belotecan:”

[2] = Homogenate activation efficiency, heart tissue (Examples 28, 37); assay type: in vitro ADME; details: pH 5.0, 37° C., 2 h; Table 5
[3] = Tumor homogenate activation efficiency, small cell lung cancer tissue (Example 28); assay type: in vitro ADME; details: pH 5.0, 37° C., 2 h; Table 5
Description: as §1, §2, §3

[4] = MTD determination in mice (Examples 27, 36, 44); assay type: in vivo; details: female, mouse, in vivo; mice, monitored for 14 d; Table 4
From the text: Test animals: 6-8 weeks old mice, all female; mice were grouped randomly, with six mice in each group, administered with drugs at different concentration gradients separately and monitored for 14 d. A mouse was euthanized at a loss of 20% of its initial weight and deemed to have died of poisoning.

[5] = system: sarcoma SJSA-1 tumor model; assay: Efficacy in animal model of sarcoma SJSA-1, 30 mg/kg once a week for two weeks (Example 40); assay type: in vivo, BALB/c mice; details: 30 mg/kg once a week for two weeks
Description: Test objective: To further compare the antitumor efficacy of different polypeptide Linkers in an animal tumor model of sarcoma SJSA-1.
(§4) Test drug: Polypeptide conjugate and normal saline control group.
The control group was administered normal saline. Administration was performed once a week for two weeks.

[6] = system: colo320 colorectal cancer tumor model
Outline: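 Female BALB/c nude mice, 6–8 weeks old, received 7.5×10^6 colo320 cells subcutaneously in the right chest. Once tumors reached at least 120 mm^3 they were randomized three per group. Treatment with test agents or saline control was given once weekly for four weeks.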

[7] = Tumor homogenate activation efficiency, breast cancer tissue (Examples 28, 37); assay type: in vitro ADME; details: pH 5.0, 37° C., 2 h; Table 5
Description: as §1, §2, §3
as §2, with “HPLC” for “high-performance liquid chromatography (HPLC)”, “Belotecan: […]” for “Belotecan:”

[8] = Tumor homogenate activation efficiency, ovarian cancer tissue (Examples 28, 37); assay type: in vitro ADME; details: pH 5.0, 37° C., 2 h; Table 5
Description: as §1, §2, §3
as §2, with “HPLC” for “high-performance liquid chromatography (HPLC)”, “Belotecan: […]” for “Belotecan:”

[9] = system: sarcoma SJSA-1 tumor model; details: Table 2
Outline: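 SJSA-1 cells (2×10^7, DMEM/10% FBS, under 15 passages) implanted subcutaneously in right chest of female BALB/c nude mice, 6-8 weeks old. At ≥100 mm^3, randomized three per group; dosing once weekly for three weeks, saline as control, day 1 = first treatment.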

[10] = Tumor homogenate activation efficiency, non-small cell lung cancer tissue (Examples 28, 37); assay type: in vitro ADME; details: pH 5.0, 37° C., 2 h; Table 5
Description: as §1, §2, §3
as §2, with “HPLC” for “high-performance liquid chromatography (HPLC)”, “Belotecan: […]” for “Belotecan:”

[11] = system: A2780 ovarian cancer tumor model; assay: Efficacy in animal model of A2780 ovarian cancer, 30 mg/kg once a week for two weeks (Example 41); assay type: in vivo, BALB/c mice
Description: Test objective: To further compare the antitumor efficacy of different polypeptide Linkers in an animal tumor model of A2780 ovarian cancer.
as §4
8×10^6 corresponding cells were injected into right axillas of nude mice subcutaneously. […] The negative control group was administered normal saline. Administration was performed once a week for two weeks.

[12] = system: A549 (non-small cell lung cancer); assay: cells; assay type: cell-based; details: CCK8, 48 h; Table 1
Outline: (§5)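 Cells seeded at 5,000 cells/well in RPMI1640 or DMEM high-glucose with 10% FBS and 1 mM sodium pyruvate, exposed to graded drug concentrations for 48 h at 37° C., 5% CO2; 0.1% DMSO controls. CCK8 added for ~2 h, absorbance 450 nm; survival rates and IC50 calculated.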

SJSA-1 (sarcoma tissue) = assay: cells; assay type: cell-based; details: CCK8, 48 h; Table 1
Outline: as §5

[13] = system: SKBR3 (breast cancer tissue); assay: cells; assay type: cell-based; details: CCK8, 48 h; Table 1
Outline: as §5

A2780 (ovarian cancer) = assay: cells; assay type: cell-based; details: CCK8, 48 h; Table 1
Outline: as §5

[14] = 15 mg/kg once a week for four weeks, Table 3
[15] = 45 mg/kg once a week for four weeks, Table 3
[16] = 15 mg/kg once a week for three weeks
[17] = 45 mg/kg once a week for three weeks
[18] = Table 14 (Example 43), dose 45 mg/kg, once a week for four weeks, BALB/c mice

| SMILES | Percentage of release efficiency (%) Sarcoma tissue (SJSA1) [1] [%] | Percentage of release efficiency (%) Heart tissue [2] [%] | Percentage of release efficiency (%) Small cell lung cancer tissue (NCI-H841) [3] [%] | MTD at 14 d [4] [mg/kg] | SJSA-1 (sarcoma tissue) mean tumor volume (mm^3) Day 1 [5] [mm^3] | SJSA-1 (sarcoma tissue) mean tumor volume (mm^3) Day 4 [5] [mm^3] | SJSA-1 (sarcoma tissue) mean tumor volume (mm^3) Day 7 [5] [mm^3] | Mouse weight (%) on Day 14 [5] | Mouse weight (%) [6, 14] | Mouse weight (%) [6, 15] | Percentage of release efficiency (%) Breast cancer tissue (SKBR3) [7] [%] | Percentage of release efficiency (%) Ovarian cancer tissue (A2780) [8] [%] | Mouse weight (%) [9, 16] | Mouse weight (%) [9, 17] | Percentage of release efficiency (%) Non-small cell lung cancer tissue (A549) [10] [%] | Mouse weight (%) on Day 14 [11] | IC50 A549 (non-small cell lung cancer) [12] [µg/mL] | IC50 SJSA-1 (sarcoma tissue) (SJSA-1 (sarcoma tissue)) [µg/mL] | IC50 SKBR3 (breast cancer tissue) [13] [µg/mL] | IC50 A2780 (ovarian cancer) (A2780 (ovarian cancer)) [µg/mL] | also measured |
| --- | --- | --- | --- | --- | --- | --- | --- | --- | --- | --- | --- | --- | --- | --- | --- | --- | --- | --- | --- | --- | --- |
| CCCN(CCc1c2c(nc3ccccc13)-c1cc3c(c(=O)n1C2)COC(=O)[C@]3(O)CC)C(=O)CNC(=O)[C@H](CC(N)=O)NC(=O)[C@H](C)NC(=O)[C@H](C)NC(=O)CCOCCOCCOCCOCCOCCOCCNC(=O)CCN1C(=O)C=CC1=O [MI-6PEG-AANG-D3] ({Propanoyl(3-maleimido)-PEG6}-AANG-X4) | 88.9 | 3.6 | 71.2 | 350 | 132.12 | 360.28 | 610.04 | +3.6% | +31% | +20% | 84.6 | 76.2 | +29% | +26% | 82.6 | +11.4% | 3.41 (≈ 2.76 µM) | 1.63 (≈ 1.32 µM) | 2.42 (≈ 1.96 µM) | 1.80 (≈ 1.46 µM) | SJSA-1 (sarcoma tissue) mean tumor volume (mm^3) Day 10 [5]: 833.76 mm^3; SJSA-1 (sarcoma tissue) growth rate (%) on Day 14 [5]: 1002.12%; SJSA-1 (sarcoma tissue) mean tumor volume (mm^3) Day 14 [5]: 1324.00 mm^3; colo320 (colorectal cancer cell) growth rate (%) [6, 14]: 985.14%; colo320 (colorectal cancer cell) mean tumor volume (mm^3) [6, 14]: 1091.1 mm^3; colo320 (colorectal cancer cell) growth rate (%) [6, 15]: 481.06%; colo320 (colorectal cancer cell) mean tumor volume (mm^3) [6, 15]: 532.8 mm^3; SJSA-1 (sarcoma tissue) mean tumor volume (mm^3) [9, 16]: 1325.4 mm^3; SJSA-1 (sarcoma) Growth rate (%) [9, 16]: 1095.4%; SJSA-1 (sarcoma tissue) mean tumor volume (mm^3) [9, 17]: 1098.2 mm^3; SJSA-1 (sarcoma) Growth rate (%) [9, 17]: 930.68%; A2780 (ovarian cancer) mean tumor volume (mm^3) Day 1 [11]: 138.55 mm^3; A2780 (ovarian cancer) mean tumor volume (mm^3) Day 4 [11]: 302.74 mm^3; A2780 (ovarian cancer) mean tumor volume (mm^3) Day 7 [11]: 742.51 mm^3; A2780 (ovarian cancer) mean tumor volume (mm^3) Day 10 [11]: 898.06 mm^3; A2780 (ovarian cancer) mean tumor volume (mm^3) Day 14 [11]: 1141.65 mm^3; Growth rate (%) of A2780 (ovarian cancer) on Day 14 [11]: 824.00% |
| CCCCCN(CCc1c2c(nc3ccccc13)-c1cc3c(c(=O)n1C2)COC(=O)[C@]3(O)CC)C(=O)CNC(=O)[C@H](CC(N)=O)NC(=O)[C@H](C)NC(=O)[C@H](C)NC(=O)CCOCCOCCOCCOCCOCCOCCNC(=O)CCN1C(=O)C=CC1=O [MI-6PEG-AANG-D4] ({Propanoyl(3-maleimido)-PEG6}-AANG-X6) | 72.4 | 2.4 | 67.2 | 350 | 131.57 | 385.46 | 607.62 | +4.1% | +40% | +18% | 80.7 | 86.7 | +27% | +26% | 78.7 | +9.6% | 6.37 (≈ 5.05 µM) | 2.52 (≈ 2 µM) | 4.54 (≈ 3.6 µM) | 4.88 (≈ 3.87 µM) | SJSA-1 (sarcoma tissue) mean tumor volume (mm^3) Day 10 [5]: 847.33 mm^3; SJSA-1 (sarcoma tissue) growth rate (%) on Day 14 [5]: 941.81%; SJSA-1 (sarcoma tissue) mean tumor volume (mm^3) Day 14 [5]: 1239.14 mm^3; colo320 (colorectal cancer cell) growth rate (%) [6, 14]: 870.11%; colo320 (colorectal cancer cell) mean tumor volume (mm^3) [6, 14]: 963.7 mm^3; colo320 (colorectal cancer cell) growth rate (%) [6, 15]: 544.80%; colo320 (colorectal cancer cell) mean tumor volume (mm^3) [6, 15]: 603.4 mm^3; SJSA-1 (sarcoma tissue) mean tumor volume (mm^3) [9, 16]: 1305.6 mm^3; SJSA-1 (sarcoma) Growth rate (%) [9, 16]: 1081.87%; SJSA-1 (sarcoma tissue) mean tumor volume (mm^3) [9, 17]: 994.5 mm^3; SJSA-1 (sarcoma) Growth rate (%) [9, 17]: 842.80%; A2780 (ovarian cancer) mean tumor volume (mm^3) Day 1 [11]: 138.58 mm^3; A2780 (ovarian cancer) mean tumor volume (mm^3) Day 4 [11]: 278.49 mm^3; A2780 (ovarian cancer) mean tumor volume (mm^3) Day 7 [11]: 624.53 mm^3; A2780 (ovarian cancer) mean tumor volume (mm^3) Day 10 [11]: 791.18 mm^3; A2780 (ovarian cancer) mean tumor volume (mm^3) Day 14 [11]: 977.54 mm^3; Growth rate (%) of A2780 (ovarian cancer) on Day 14 [11]: 705.40% |
| CC[C@@]1(O)C(=O)OCc2c1cc1n(c2=O)Cc2c-1nc1ccccc1c2CCN(C(=O)CNC(=O)[C@H](CC(N)=O)NC(=O)[C@H](C)NC(=O)[C@H](C)NC(=O)CCOCCOCCOCCOCCOCCOCCNC(=O)CCN1C(=O)C=CC1=O)C1CC1 [MI-6PEG-AANG-D6] ({Propanoyl(3-maleimido)-PEG6}-AANG-X3) | 79.9 | 2.5 | 76 | 200 | – | – | – | −0.6% | +27% | +17% | 82.1 | 75.9 | +24% | +3% | 73.1 | +8.5% | 1.55 (≈ 1.26 µM) | 0.49 (≈ 0.398 µM) | 1.81 (≈ 1.47 µM) | 0.77 (≈ 0.625 µM) | Mouse weight (%) [6, 18]: +17% |
| CC[C@@]1(O)C(=O)OCc2c1cc1n(c2=O)Cc2c-1nc1ccccc1c2CCN(C(=O)CNC(=O)[C@H](CC(N)=O)NC(=O)[C@H](C)NC(=O)[C@H](C)NC(=O)CCOCCOCCOCCOCCOCCOCCNC(=O)CCN1C(=O)C=CC1=O)C1CCC1 [MI-6PEG-AANG-D7] ({Propanoyl(3-maleimido)-PEG6}-AANG-X1) | 64.3 | 2 | 66.1 | 250 | – | – | – | +1.6% | +26% | +31% | 78.8 | 84.5 | +31% | +26% | 77 | +15.6% | 1.89 (≈ 1.52 µM) | 0.53 (≈ 0.426 µM) | 2.64 (≈ 2.12 µM) | 1.21 (≈ 0.972 µM) | Mouse weight (%) [6, 18]: +31% |

Source: patent publication US20250235545A1, “POLYPEPTIDE CONJUGATE AND USE THEREOF” (SHANGHAI CHIXI BIOMEDICAL TECHNOLOGY CO., LTD, priority 2024, published 2025)
